Consider four compounds from patent US8604087B2, “Composition for treating or preventing amyloid-related diseases comprising 4-O-methylhonokiol” (priority 2008, dated 2013).

In assay [1] the test system is scopolamine-induced impairment of learning ability of mice. Put plainly: Water maze test for evaluating spatial learning ability. The format is in vivo, male ICR mice. The conditions noted are these: for Improvement: escape distance. The method, then:
In order to test the effect of 4-O-methylhonokiol on the scopolamine-induced impairment of learning ability of mice, experiment was performed as follows based on the water maze test animal model described in the literature [Korea Health Research Association, Guidelines for the Testing of Functional Health Foods, 663-701, 2004; Widy-Tyszkiewicz et al., Biol. Pharm. Bull., 2002]. 5-6 weeks old male ICR mice (20-28 g; Dae Han Biolink, Korea) were raised under controlled lighting (12-hour light-dark cycle) and temperature (22±2° C.) conditions. They were grouped (n=10) and given free access to food and water, in a cage. The mice were accustomed for a week before performing the test.
A round pool 180 cm in diameter and 50 cm in height was filled with water (22±3° C.) to 30 cm in depth. A transparent acryl resin platform (diameter 12 cm) was placed 1.5 cm below the surface of the water. The mice were trained for 6 days, 180 seconds a day (acquisition test). On day 7, retention test was carried out. The mice were forced to swim for 60 seconds by removing the platform. All the behaviors of the mice were recorded using a video camera. Time and distance were measured until the mice climbed onto the platform.
4-O-methylhonokiol (0.5, 1 and 1.5 mg/kg) was dissolved in drinking water and orally administered to the mice, for a week. The comparison group was treated with scopolamine only, and the control group was not treated with any substance.

Assay [2] concerns scopolamine-induced impairment of memory of mice. Put plainly: Passive avoidance test for evaluating explicit memory. It is filed as in vivo. Particulars: for Improvement: step-through latency. The method, then: In order to test the effect of 4-O-methylhonokiol on the scopolamine-induced impairment of memory of mice, experiment was performed as follows based on the passive avoidance test animal model described in the literature [Korea Health Research Association, Guidelines for the Testing of Functional Health Foods, 663-701, 2004; Rho et al., Biol. Pharm. Bull., 2005].
A passive avoidance instrument consisting of two chambers separated by a guillotine door was used as the experimental apparatus. One chamber was an illuminated chamber made of transparent acryl boards (30×30×30 cm) and the other was a dark chamber made of black acryl boards (same dimensions). The floor of the dark chamber was equipped with a grid made of aluminum pieces separated by a regular spacing. The grid was connected to an apparatus for delivering electric shocks to the feet of the test animal. A mouse was put into the illuminated chamber and the guillotine door was opened so that the mouse could enter the dark chamber. The acquisition trials were repeated 3 times. On the third run, immediately after the mouse entered the dark chamber, an electric shock was delivered through the aluminum grid (0.1 mA, 5 seconds). Memory test was performed 24 hours after the acquisition trials. The mouse was put into the illuminated chamber, the guillotine door was opened, and the time taken for the mouse to enter the dark chamber was measured (step-through latency). A longer time means better learning ability and memory. 10 mice were tested for each group.

For assay [3], the target named is acetylcholinesterase (Homo sapiens, UniProt P22303). Put plainly: Inhibition of acetylcholinesterase activity by honokiol and 4-O-methylhonokiol (modified Ellman's method). The format is biochemical. Particulars: for IC50: 5 minutes of reaction at 25° C., pH 8.0; for inhibition at 0.01 µM: concentration 10 nM; for inhibition at 0.1 µM: concentration 100 nM. The method, then: Acetylcholinesterase activity was analyzed by the modified Ellman's method [Ellman G. L., et al., Biochem. Pharmacol. 7, 88-95, 1961]. After adding 50 mM phosphate buffer (30 μL, pH 8.0) to a 96-well plate, different concentrations of 4-O-methylhonokiol or honokiol was added, 10 μL per well, and acetylcholinesterase was added, 10 μL per well. Then, 50 mM phosphate buffer (50 μL, pH 8.0) containing 0.5 mM acetylthiocholine iodide and 1 mM 5,5′-dithiobis(2-nitrobenzoic acid) was added as a substrate for the enzyme. After 5 minutes of reaction at 25° C., absorbance was measured at 412 nm. The inhibition of acetylcholinesterase activity was calculated by the following equation. Measurement was made 3 times. Inhibition of acetylcholinesterase activity (%)=[…]
Sequence of acetylcholinesterase (P22303 32-614, species assumed): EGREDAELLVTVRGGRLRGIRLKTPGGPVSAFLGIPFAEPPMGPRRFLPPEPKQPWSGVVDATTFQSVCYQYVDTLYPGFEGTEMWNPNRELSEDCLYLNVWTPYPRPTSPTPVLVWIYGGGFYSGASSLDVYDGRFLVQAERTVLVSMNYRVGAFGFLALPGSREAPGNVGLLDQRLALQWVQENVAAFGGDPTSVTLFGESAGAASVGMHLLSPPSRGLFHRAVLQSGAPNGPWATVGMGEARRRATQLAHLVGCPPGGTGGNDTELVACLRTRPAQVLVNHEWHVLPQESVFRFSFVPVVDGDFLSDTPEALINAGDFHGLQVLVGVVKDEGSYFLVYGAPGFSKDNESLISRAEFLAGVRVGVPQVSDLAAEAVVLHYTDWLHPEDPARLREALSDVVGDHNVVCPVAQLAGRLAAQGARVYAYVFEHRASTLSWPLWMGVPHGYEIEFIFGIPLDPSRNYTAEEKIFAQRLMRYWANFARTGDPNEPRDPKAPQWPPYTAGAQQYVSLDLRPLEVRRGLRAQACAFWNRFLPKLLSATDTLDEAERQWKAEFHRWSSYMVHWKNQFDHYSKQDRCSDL
ODb: absorbance of untreated reaction solution at 412 nm;
ODs: absorbance of treated reaction solution at 412 nm; and
ODc: absorbance of control at 412 nm.
A general note: In Ellman's method for cholinesterases, released thiocholine reacts with DTNB.

In the next assay the test system is Amyloid-β 1-42. Put plainly: Inhibition of amyloid-β 1-42 production in mouse brain cortex and hippocampus (amyloid beta 1-42 assay kit). The format is in vivo. The conditions noted are these: for Improvement: production amount. How it is done:
After the behavioral pharmacological experiments, the brain cortex and hippocampus were separated from the brain of the mouse, homogenized with RO-PREP protein extraction solution, and centrifuged at 4° C., at 15,000 rpm, for 2 hours. The protein quantity of the supernatant was analyzed with a Bio-Rad protein analysis kit (Bio-Rad). Amyloid-β 1-42 were quantitated using an amyloid beta 1-42 assay kit (Immuno-Biological, Japan).
The protein extract (100 μL) obtained from the brain cortex or hippocampus was put in a coated 96-well plate and incubated at 4° C. overnight. After washing with washing buffer and adding labeled antibody solution, the mixture was incubated at 4° C. for 1 hour in the dark. After washing again and adding chromogen, the mixture was incubated at room temperature for 30 minutes in the dark. Then, after adding stop solution, absorbance was measured at 450 nm. Measurement was made 3 times.

For assay [4], the target named is T1, Acetylcholinesterase (Mus musculus, UniProt P21836).
T1 construct: the brain cortex and hippocampus were separated from the brain of the mouse, homogenized with RO-PREP protein extraction solution; from tissue; host or cells: mouse brain cortex and hippocampus
T1 sequence (P21836 32-614): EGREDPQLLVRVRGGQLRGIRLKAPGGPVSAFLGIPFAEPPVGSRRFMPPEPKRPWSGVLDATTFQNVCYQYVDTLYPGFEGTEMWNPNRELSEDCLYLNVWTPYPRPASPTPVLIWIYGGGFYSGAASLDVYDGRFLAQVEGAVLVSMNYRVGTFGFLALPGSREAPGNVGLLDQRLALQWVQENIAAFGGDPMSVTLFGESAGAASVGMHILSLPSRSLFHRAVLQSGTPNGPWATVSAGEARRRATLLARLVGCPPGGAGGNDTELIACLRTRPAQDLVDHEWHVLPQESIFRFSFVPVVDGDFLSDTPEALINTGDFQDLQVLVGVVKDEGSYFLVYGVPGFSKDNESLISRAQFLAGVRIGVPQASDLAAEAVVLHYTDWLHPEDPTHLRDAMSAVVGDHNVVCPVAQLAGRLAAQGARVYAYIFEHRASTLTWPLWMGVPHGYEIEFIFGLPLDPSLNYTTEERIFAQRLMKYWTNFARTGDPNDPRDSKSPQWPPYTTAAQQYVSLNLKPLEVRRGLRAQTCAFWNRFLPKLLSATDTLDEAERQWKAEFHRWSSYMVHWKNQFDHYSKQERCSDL
Nature of the assay: Acetylcholinesterase activity in mouse brain cortex and hippocampus after the behavioral experiments (modified Ellman's method). It is filed as in vivo. Also noted: Enzyme activity: unit not given beside the values. Particulars: for Improvement: enzyme activity. How it is done:
After the behavioral pharmacological experiments, the brain cortex and hippocampus were separated from the brain of the mouse, homogenized with RO-PREP protein extraction solution (iNtRON Biotechnology), and centrifuged at 4° C., at 15,000 rpm, for 2 hours. The protein quantity of the supernatant was analyzed with a Bio-Rad protein analysis kit (Bio-Rad). Acetylcholinesterase activity was analyzed by the modified Ellman's method.
Cell lysate was put in a 96-well plate, 10 μL per well. After adding reaction buffer [190 μL, 0.01% DTNB, 0.02% acetylthiocholine and 0.1 mM isoOMPA in 50 mM Tris-HCl (pH 8.0, 0.1 M NaCl, 20 mM MgCl2)], measurement was made at 37° C., at 405 nm, for 5 minutes. After 10 minutes of reaction, measurement was made again at the same wavelength. After adding different concentrations of acetylcholinesterase and treating with standard buffer [0.01% DTNB and 0.02% 0.1 mM isoOMPA in 50 mM Tris-HCl (pH 8.0, 0.1 M NaCl, 20 mM MgCl2)], measurement was made at 37° C., at 405 nm, for 5 minutes. Activity was calculated from the difference of absorbance at the first and second measurements.

The mark [5] stands for this setting: brain cortex, scopolamine 1 mg/kg + 4-O-methylhonokiol 0.5 mg/kg.
[6] abbreviates: brain cortex, scopolamine 1 mg/kg + 4-O-methylhonokiol 1 mg/kg.
Where [7] appears, read: brain cortex, scopolamine 1 mg/kg + 4-O-methylhonokiol 1.5 mg/kg.
[8] abbreviates: hippocampus, scopolamine 1 mg/kg + 4-O-methylhonokiol 0.5 mg/kg.
The mark [9] stands for this setting: hippocampus, scopolamine 1 mg/kg + 4-O-methylhonokiol 1 mg/kg.
Setting [10] is: hippocampus, scopolamine 1 mg/kg + 4-O-methylhonokiol 1.5 mg/kg.
Setting [11] is: scopolamine 1 mg/kg + 4-O-methylhonokiol 0.5 mg/kg.
Setting [12] is: scopolamine 1 mg/kg + 4-O-methylhonokiol 1 mg/kg.
Setting [13] is: scopolamine 1 mg/kg + 4-O-methylhonokiol 1.5 mg/kg.

Regarding `CN1[C@@H]2C[C@@H](OC(=O)[C@H](CO)c3ccccc3)C[C@H]1[C@@H]1O[C@@H]12` [scopolamine, Scopolamine, reference compound], in assay [1] (comparison group, scopolamine 1 mg/kg only (control group 232)), the Escape distance was 884 cm. The same compound had a Step-through latency in assay [2] (comparison group, scopolamine 1 mg/kg only (control group 34.3)) of 14.6 s.

As usually defined, the IC50 is the concentration needed to halve the response being measured. What is called inhibition is the relative decrease from the control value, in per cent. On acetylcholinesterase [3], `C=CCc1ccc(O)c(-c2ccc(O)c(CC=C)c2)c1` [Honokiol] yielded an IC50 of 250 nM, an inhibition at 0.01 µM of 17% and an inhibition at 0.1 µM of 43%. The compound also showed an inhibition at 1 µM at acetylcholinesterase [3] (concentration 1000 nM) of 74%.

Consider β-amyloid [reference compound], for which the Production amount with Amyloid-β 1-42 (amyloid-β 1-42, brain cortex, comparison group, β-amyloid 1 mg/kg only (control group 23.5)) is listed as 28.1; with Amyloid-β 1-42 (amyloid-β 1-42, hippocampus, comparison group, β-amyloid 1 mg/kg only (control group 16.2)), 25.1.

As to `C=CCc1ccc(O)c(-c2ccc(OC)c(CC=C)c2)c1` [4-O-methylhonokiol], the Enzyme activity came to 30.2 on Acetylcholinesterase [4] (setting [5]); 24.1 on Acetylcholinesterase [4] (setting [6]); 19.1 at Acetylcholinesterase [4] (setting [7]); 14.1 at Acetylcholinesterase [4] (setting [8]); 13.2 on Acetylcholinesterase [4] (setting [9]); 13 on Acetylcholinesterase [4] (setting [10]). Besides, the Improvement at Acetylcholinesterase [4] (setting [5]) amounted to 42.8%; at Acetylcholinesterase [4] (setting [6]) it was 70.3%; at Acetylcholinesterase [4] (setting [7]) it was 92.8%; on Acetylcholinesterase [4] (setting [8]), 72.7%; on Acetylcholinesterase [4] (setting [9]), 93.2%; at Acetylcholinesterase [4] (setting [10]), 97.7%. The Improvement turned out to be 48.8% in assay [1] (setting [11]); 88.6% in assay [1] (setting [12]); 91.8% in assay [1] (setting [13]); 37.1% in assay [2] (setting [11]); 70% in assay [2] (setting [12]); 95% in assay [2] (setting [13]). The Improvement worked out at 28.3% with Amyloid-β 1-42 (brain cortex, β-amyloid 1 mg/kg + 4-O-methylhonokiol 0.5 mg/kg); 82.6% in the assay with Amyloid-β 1-42 (brain cortex, β-amyloid 1 mg/kg + 4-O-methylhonokiol 1 mg/kg); 100% in the assay on Amyloid-β 1-42 (brain cortex, β-amyloid 1 mg/kg + 4-O-methylhonokiol 1.5 mg/kg); 33.3% in the assay with Amyloid-β 1-42 (hippocampus, β-amyloid 1 mg/kg + 4-O-methylhonokiol 0.5 mg/kg); 77.8% in the assay with Amyloid-β 1-42 (hippocampus, β-amyloid 1 mg/kg + 4-O-methylhonokiol 1 mg/kg); 95.6% with Amyloid-β 1-42 (hippocampus, β-amyloid 1 mg/kg + 4-O-methylhonokiol 1.5 mg/kg). For the same compound, the Escape distance in assay [1] (scopolamine 1 mg/kg + 4-O-methylhonokiol 0.5 mg/kg oral in drinking water for a week, mice) was found to be 566 cm; in assay [1] (scopolamine 1 mg/kg + 4-O-methylhonokiol 1 mg/kg oral in drinking water for a week, mice), 305 cm; in assay [1] (scopolamine 1 mg/kg + 4-O-methylhonokiol 1.5 mg/kg oral in drinking water for a week, mice), 284 cm. For the same compound, the Step-through latency in assay [2] (scopolamine 1 mg/kg + 4-O-methylhonokiol 0.5 mg/kg, 24 hours after acquisition trials) worked out at 21.9 s; in assay [2] (scopolamine 1 mg/kg + 4-O-methylhonokiol 1 mg/kg, 24 hours after acquisition trials) it was 28.3 s; in assay [2] (scopolamine 1 mg/kg + 4-O-methylhonokiol 1.5 mg/kg, 24 hours after acquisition trials), 33.5 s. This compound also registered an IC50 against acetylcholinesterase [3] of 1.2 nM. Testing at 0.001 µM on acetylcholinesterase [3] (concentration 1 nM) gave an inhibition of 47%. On acetylcholinesterase [3], the inhibition at 0.01 µM was found to be 68%. The same compound came in with an inhibition at 0.1 µM against acetylcholinesterase [3] of 78%. For the same compound, the “times better inhibition ability of acetylcholinesterase activity than honokiol” value on acetylcholinesterase [3] (ratio of IC50 values) is listed as “about 200 times”. In addition, the Production amount in the assay on Amyloid-β 1-42 (amyloid-β 1-42, brain cortex, β-amyloid 1 mg/kg + 4-O-methylhonokiol 0.5 mg/kg) was 26.8; in the assay with Amyloid-β 1-42 (amyloid-β 1-42, brain cortex, β-amyloid 1 mg/kg + 4-O-methylhonokiol 1 mg/kg), 24.3; in the assay on Amyloid-β 1-42 (amyloid-β 1-42, brain cortex, β-amyloid 1 mg/kg + 4-O-methylhonokiol 1.5 mg/kg) it was 23.1; with Amyloid-β 1-42 (amyloid-β 1-42, hippocampus, β-amyloid 1 mg/kg + 4-O-methylhonokiol 0.5 mg/kg) it was 22.7; in the assay with Amyloid-β 1-42 (amyloid-β 1-42, hippocampus, β-amyloid 1 mg/kg + 4-O-methylhonokiol 1 mg/kg), 18.2; in the assay with Amyloid-β 1-42 (amyloid-β 1-42, hippocampus, β-amyloid 1 mg/kg + 4-O-methylhonokiol 1.5 mg/kg) it was 16.5.
